{
  "source": "patent US12084436B2",
  "about": "“Heterocyclic compound” (Takeda Pharmaceutical Company Limited, priority 2019, dated 2024)",
  "molecular_target": "T1, HDAC6 enzyme (Homo sapiens, UniProt Q9UBN7)",
  "T1 construct": "prepared by transducing full length HDAC6 gene into Sf-9 insect cells; GST; purchased SignalChem; host or cells: Sf-9 insect cells",
  "T1 sequence (Q9UBN7 1-1215)": "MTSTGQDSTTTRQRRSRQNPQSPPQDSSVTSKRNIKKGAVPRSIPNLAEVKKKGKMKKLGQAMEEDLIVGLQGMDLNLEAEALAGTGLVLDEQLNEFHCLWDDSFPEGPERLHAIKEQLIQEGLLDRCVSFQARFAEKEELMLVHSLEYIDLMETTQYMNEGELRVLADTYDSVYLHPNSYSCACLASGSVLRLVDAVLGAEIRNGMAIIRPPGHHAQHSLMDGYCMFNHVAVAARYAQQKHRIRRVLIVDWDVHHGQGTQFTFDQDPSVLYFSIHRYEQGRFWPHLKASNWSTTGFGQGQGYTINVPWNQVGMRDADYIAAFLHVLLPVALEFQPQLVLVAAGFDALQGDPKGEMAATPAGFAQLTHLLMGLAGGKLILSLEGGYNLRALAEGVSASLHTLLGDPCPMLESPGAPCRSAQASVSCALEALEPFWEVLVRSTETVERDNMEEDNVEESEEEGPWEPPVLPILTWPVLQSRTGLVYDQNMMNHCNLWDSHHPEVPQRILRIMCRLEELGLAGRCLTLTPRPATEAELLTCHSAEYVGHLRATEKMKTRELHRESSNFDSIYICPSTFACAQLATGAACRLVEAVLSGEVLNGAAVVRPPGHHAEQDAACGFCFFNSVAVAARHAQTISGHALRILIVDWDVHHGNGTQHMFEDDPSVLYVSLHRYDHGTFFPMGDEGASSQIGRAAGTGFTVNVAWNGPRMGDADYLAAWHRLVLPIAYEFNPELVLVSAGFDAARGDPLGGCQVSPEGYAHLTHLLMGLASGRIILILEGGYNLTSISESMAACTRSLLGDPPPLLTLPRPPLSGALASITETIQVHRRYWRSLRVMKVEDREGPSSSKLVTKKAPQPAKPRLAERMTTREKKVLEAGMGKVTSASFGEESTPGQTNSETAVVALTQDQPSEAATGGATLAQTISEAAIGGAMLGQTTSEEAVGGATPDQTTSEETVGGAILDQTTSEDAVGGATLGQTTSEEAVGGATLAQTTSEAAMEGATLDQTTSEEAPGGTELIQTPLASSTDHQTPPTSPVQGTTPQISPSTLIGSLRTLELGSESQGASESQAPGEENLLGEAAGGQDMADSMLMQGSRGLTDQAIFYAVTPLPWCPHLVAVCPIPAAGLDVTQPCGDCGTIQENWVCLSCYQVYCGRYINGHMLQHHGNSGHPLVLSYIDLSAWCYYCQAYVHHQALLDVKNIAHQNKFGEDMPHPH",
  "assay": "HDAC6 enzyme inhibitory assay (HDAC-Glo I/II Assay kit, luminescence)",
  "assay_type": "biochemical",
  "conditions": "10 μM test compound, wells without enzyme = 100% inhibition; for inhibition at 10 µM: read-out: HDAC6 inhibitory rate (%) (10 μM)",
  "method": "HDAC6 Enzyme Inhibitory Assay\nHDAC6 enzyme prepared by transducing full length HDAC6 gene into Sf-9 insect cells and purifying by GST affinity column were purchased from SignalChem. Using this enzyme, HDAC6 enzyme inhibitory activities of the compound of the present invention were evaluated. Enzymes were used after preserved at −70° C. HDAC6 enzyme inhibitory activity of the compound of the present invention was measured using HDAC-Glo™ I/II Assay kit (Promega) according to the following experimental method. The test compound diluted with assay buffer (24 mM Tris-HCl (pH 7.5), 1 mM MgCl2, 0.35 mM KCl, 135 mM NaCl, 0.6 mM Glutathione, 0.01% Tween-20) was added to a 384-well plate by each 2 μL. Then, HDAC6 enzyme solution diluted with assay buffer was added thereto by each 4 μL, and the plate was incubated at room temperature for 60 min. After incubated, HDAC substrate-Developer solution prepared according to Promega protocol attached to the assay kit was added to the 384-well plate by each 2 μL, and the enzyme reaction was started. After reacting at room temperature for 20 min, luminescence level was measured using plate reader Envision (PerkinElmer). The inhibitory activity of each compound of Example was calculated as a relative activity value when luminescence level in wells without enzyme is considered as 100% inhibition.",
  "data": [
    {"smiles": "O=C1CCCN1CCOc1cccnc1-c1cc(F)cc(-c2nnc(C(F)F)o2)c1", "note": "[Example 15a, 1-{2-[(2-{3-[5-(difluoromethyl)-1,3,4-oxadiazol-2-yl]-5-fluorophenyl}pyridin-3-yl)oxy]ethyl}pyrrolidin-2-one]", "values": [
      {"measurement": "inhibition at 10 µM", "value": 92, "unit": "%"}
    ]},
    {"smiles": "Fc1cc(-c2nnc(C(F)F)o2)cc(-c2ncccc2OCc2ccccn2)c1", "note": "[Example 11a, 2-{3-[5-(difluoromethyl)-1,3,4-oxadiazol-2-yl]-5-fluorophenyl}-3-[(pyridin-2-yl)methoxy]pyridine]", "values": [
      {"measurement": "inhibition at 10 µM", "value": 94, "unit": "%"}
    ]},
    {"smiles": "O=C1NN(C2CCC(F)(F)CC2)Cc2ccc(-c3nnc(C(F)F)o3)cc21", "note": "[Example 29b, 3-(4,4-difluorocyclohexyl)-7-[5-(difluoromethyl)-1,3,4-oxadiazol-2-yl]-3,4-dihydrophthalazin-1(2H)-one]", "values": [
      {"measurement": "inhibition at 10 µM", "value": 99, "unit": "%"}
    ]},
    {"smiles": "N#Cc1ccc(Cn2ccnc2-c2cc(-c3nnc(C(F)F)o3)ccn2)cc1F", "note": "[Example 75a, 4-[(2-{4-[5-(difluoromethyl)-1,3,4-oxadiazol-2-yl]pyridin-2-yl}-1H-imidazol-1-yl)methyl]-2-fluorobenzonitrile]", "values": [
      {"measurement": "inhibition at 10 µM", "value": 99, "unit": "%"}
    ]},
    {"smiles": "Fc1ccc(Cn2ccnc2-c2cc(-c3nnc(C(F)F)o3)ccn2)nc1", "note": "[Example 76a, 4-[5-(difluoromethyl)-1,3,4-oxadiazol-2-yl]-2-{1-[(5-fluoropyridin-2-yl)methyl]-1H-imidazol-2-yl}pyridine]", "values": [
      {"measurement": "inhibition at 10 µM", "value": 100, "unit": "%"}
    ]},
    {"smiles": "CC(C)(C)OC(=O)N1CCC(Oc2cccnc2-c2cc(F)cc(-c3nnc(C(F)F)o3)c2)CC1", "note": "[Example 16a, tert-butyl 4-[(2-{3-[5-(difluoromethyl)-1,3,4-oxadiazol-2-yl]-5-fluorophenyl}pyridin-3-yl)oxy]piperidine-1-carboxylate]", "values": [
      {"measurement": "inhibition at 10 µM", "value": 98, "unit": "%"}
    ]},
    {"smiles": "COc1ccccc1Cn1ccnc1-c1cc(-c2nnc(C(F)F)o2)ccn1", "note": "[Example 84a, 4-[5-(difluoromethyl)-1,3,4-oxadiazol-2-yl]-2-{1-[(2-methoxyphenyl)methyl}-1H-imidazol-2-yl}pyridine]", "values": [
      {"measurement": "inhibition at 10 µM", "value": 100, "unit": "%"}
    ]},
    {"smiles": "FC(F)c1nnc(-c2cccc(-c3nccn3Cc3ccccc3)c2)o1", "note": "[Example 70a, 2-[3-(1-benzyl-1H-imidazol-2-yl)phenyl]-5-(difluoromethyl)-1,3,4-oxadiazole]", "values": [
      {"measurement": "inhibition at 10 µM", "value": 98, "unit": "%"}
    ]},
    {"smiles": "CN(Cc1cccc(C(F)F)c1)N1Cc2ccc(-c3nnc(C(F)F)o3)cc2C1=O", "note": "[Example 56c, 6-[5-(difluoromethyl)-1,3,4-oxadiazol-2-yl]-2-[{[3-(difluoromethyl)phenyl]methyl} (methyl)amino]-2,3-dihydro-1H-isoindol-1-one]", "values": [
      {"measurement": "inhibition at 10 µM", "value": 99, "unit": "%"}
    ]},
    {"smiles": "Fc1cc(-c2nnc(C(F)F)o2)cc(-c2nccn2Cc2ccc(F)c(F)c2)c1", "note": "[Example 45a, 2-(difluoromethyl)-5-(3-{1-[(3,4-difluorophenyl)methyl]-1H-imidazol-2-yl}-5-fluorophenyl)-1,3,4-oxadiazole]", "values": [
      {"measurement": "inhibition at 10 µM", "value": 100, "unit": "%"}
    ]},
    {"smiles": "CN(CCOCc1ccccc1)N1Cc2ccc(-c3nnc(C(F)F)o3)cc2C1=O", "note": "[Example 48c, 2-{[2-(benzyloxy)ethyl](methyl)amino}-6-[5-(difluoromethyl)-1,3,4-oxadiazol-2-yl]-2,3-dihydro-1H-isoindol-1-one]", "values": [
      {"measurement": "inhibition at 10 µM", "value": 99, "unit": "%"}
    ]},
    {"smiles": "Fc1ccc(Cn2ccnc2-c2cc(F)cc(-c3nnc(C(F)F)o3)c2)cc1", "note": "[Example 46a, 2-(difluoromethyl)-5-(3-fluoro-5-{1-[(4-fluorophenyl)methyl]-1H-imidazol-2-yl}phenyl)-1,3,4-oxadiazole]", "values": [
      {"measurement": "inhibition at 10 µM", "value": 99, "unit": "%"}
    ]},
    {"smiles": "CN1C(=O)c2cc(-c3nnc(C(F)F)o3)ccc2OC1(C)c1ccccn1", "note": "(stereo not shown) [Example 12b, 6-[5-(difluoromethyl)-1,3,4-oxadiazol-2-yl]-2,3-dimethyl-2-(pyridin-2-yl)-2,3-dihydro-4H-1,3-benzoxazin-4-one]", "values": [
      {"measurement": "inhibition at 10 µM", "value": 98, "unit": "%"}
    ]},
    {"smiles": "CN(C(=O)OC(C)(C)C)N1Cc2ccc(-c3nnc(C(F)F)o3)cc2C1=O", "note": "[Example 38c, tert-butyl {6-[5-(difluoromethyl)-1,3,4-oxadiazol-2-yl]-1-oxo-1,3-dihydro-2H-isoindol-2-yl}methylcarbamate]", "values": [
      {"measurement": "inhibition at 10 µM", "value": 97, "unit": "%"}
    ]},
    {"smiles": "COc1cccc(Cn2ccnc2-c2cc(-c3nnc(C(F)F)o3)ccn2)c1", "note": "[Example 81a, 4-[5-(difluoromethyl)-1,3,4-oxadiazol-2-yl]-2-{1-[(3-methoxyphenyl)methyl]-1H-imidazol-2-yl}pyridine]", "values": [
      {"measurement": "inhibition at 10 µM", "value": 101, "unit": "%"}
    ]},
    {"smiles": "CN1C(=O)c2cc(-c3nnc(C(F)F)o3)ccc2OC1(C)c1ccc(F)cc1", "note": "(single isomer, unassigned; isomer 2) [Example 9b, 6-[5-(difluoromethyl)-1,3,4-oxadiazol-2-yl]-2-(4-fluorophenyl)-2,3-dimethyl-2,3-dihydro-4H-1,3-benzoxazin-4-one (optical isomer 2)]", "values": [
      {"measurement": "HDAC6 inhibitory rate (%) (10 μM)", "setting": "10 µM", "value": 96, "unit": "%"}
    ]},
    {"smiles": "CN(C(=O)OC(C)(C)C)N1Cc2ncc(-c3nnc(C(F)F)o3)cc2C1=O", "note": "[Example 68c, tert-butyl {3-[5-(difluoromethyl)-1,3,4-oxadiazol-2-yl]-5-oxo-5,7-dihydro-6H-pyrrolo[3,4-b]pyridin-6-yl}methylcarbamate]", "values": [
      {"measurement": "inhibition at 10 µM", "value": 99, "unit": "%"}
    ]},
    {"smiles": "CN1C(=O)c2cc(-c3nnc(C(F)F)o3)ccc2OC1(C)c1ccccc1", "note": "(stereo not shown) [Example 4b, 6-[5-(difluoromethyl)-1,3,4-oxadiazol-2-yl]-2,3-dimethyl-2-phenyl-2,3-dihydro-4H-1,3-benzoxazin-4-one]", "values": [
      {"measurement": "inhibition at 10 µM", "value": 99, "unit": "%"}
    ]},
    {"smiles": "CCN1C(=O)c2cc(-c3nnc(C(F)F)o3)ccc2CN1c1ccc(F)cc1", "note": "[Example 46b, 7-[5-(difluoromethyl)-1,3,4-oxadiazol-2-yl]-2-ethyl-3-(4-fluorophenyl)-3,4-dihydrophthalazin-1(2H)-one]", "values": [
      {"measurement": "inhibition at 10 µM", "value": 100, "unit": "%"}
    ]},
    {"smiles": "Fc1cccc(Cn2c(Br)cnc2-c2cc(-c3nnc(C(F)F)o3)ccn2)c1", "note": "[Example 74a, 2-{5-bromo-1-[(3-fluorophenyl)methyl]-1H-imidazol-2-yl}-4-[5-(difluoromethyl)-1,3,4-oxadiazol-2-yl]pyridine]", "values": [
      {"measurement": "inhibition at 10 µM", "value": 99, "unit": "%"}
    ]},
    {"smiles": "O=C1NN(C2CCCCC2)Cc2ccc(-c3nnc(C(F)F)o3)cc21", "note": "[Example 11b, 3-cyclohexyl-7-[5-(difluoromethyl)-1,3,4-oxadiazol-2-yl]-3,4-dihydrophthalazin-1(2H)-one]", "values": [
      {"measurement": "inhibition at 10 µM", "value": 99, "unit": "%"}
    ]},
    {"smiles": "CCN(Cc1ccccc1)N1Cc2ccc(-c3nnc(C(F)F)o3)cc2C1=O", "note": "[Example 8c, 2-[benzyl (ethyl)amino]-6-[5-(difluoromethyl)-1,3,4-oxadiazol-2-yl]-2,3-dihydro-1H-isoindol-1-one]", "values": [
      {"measurement": "inhibition at 10 µM", "value": 95, "unit": "%"}
    ]},
    {"smiles": "Cc1cc(Cn2ccnc2-c2cc(F)cc(-c3nnc(C(F)F)o3)c2)on1", "note": "[Example 62a, 2-(difluoromethyl)-5-(3-fluoro-5-{1-[(3-methyl-1,2-oxazol-5-yl)methyl]-1H-imidazol-2-yl}phenyl)-1,3,4-oxadiazole]", "values": [
      {"measurement": "inhibition at 10 µM", "value": 99, "unit": "%"}
    ]},
    {"smiles": "N#Cc1cnc(-c2cc(-c3nnc(C(F)F)o3)ccn2)n1Cc1cccc(F)c1", "note": "[Example 82a, 2-{4-[5-(difluoromethyl)-1,3,4-oxadiazol-2-yl]pyridin-2-yl}-1-[(3-fluorophenyl)methyl]-1H-imidazole-5-carbonitrile]", "values": [
      {"measurement": "inhibition at 10 µM", "value": 99, "unit": "%"}
    ]},
    {"smiles": "Cn1ccc(OC2CCC(F)(F)CC2)c(-c2cc(-c3nnc(C(F)F)o3)ccn2)c1=O", "note": "[Example 88a, 4′-[(4,4-difluorocyclohexyl)oxy]-4-[5-(difluoromethyl)-1,3,4-oxadiazol-2-yl]-1′-methyl[2,3′-bipyridine]-2′(1′H)-one]", "values": [
      {"measurement": "inhibition at 10 µM", "value": 100, "unit": "%"}
    ]}
  ]
}
